Usually IC50 stands for the concentration needed to halve the response being measured. A low value points to greater potency in that assay.

The structures appear in SMILES notation.

The assay deals with human Cat S (Homo sapiens, UniProt P25774). Nature of the assay: Cathepsin enzyme inhibition assay (fluorogenic peptide substrate cleavage). The class given is biochemical. The following applies: human Cat S 1 nM; substrate Z-Val-Val-Arg-AMC 20 μM; pH 6.5; fluorescence over 20 minutes. The essentials: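 IC50 values derived from fluorescence increase (ex 360 nm, em 465 nm) monitored for 20 minutes after substrate addition. Enzyme held at 1 nM with 20 μM Z-Val-Val-Arg-AMC, in pH 6.5 potassium phosphate buffer containing DTT, EDTA and Triton X-100.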
Sequence of human Cat S (P25774 115-331): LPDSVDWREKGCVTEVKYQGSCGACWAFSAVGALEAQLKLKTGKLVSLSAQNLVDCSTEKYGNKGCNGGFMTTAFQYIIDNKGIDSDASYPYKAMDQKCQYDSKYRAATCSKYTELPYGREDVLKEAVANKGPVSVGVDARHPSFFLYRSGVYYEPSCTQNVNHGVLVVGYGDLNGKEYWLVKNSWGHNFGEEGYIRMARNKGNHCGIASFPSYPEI
`Cn1cc(-c2ccc(S(=O)(=O)[C@@H]3C[C@@H](C(=O)NC4(C#N)CC4)[C@H](C(=O)N4CC(F)(F)C4)C3)c(C(F)(F)F)c2)cn1` [Example 120, (1R,2R,4R)-2-(3,3-Difluoro-azetidine-1-carbonyl)-4-[4-(1-methyl-1H-pyrazol-4-yl)-2-trifluoromethyl-benzenesulfonyl]-cyclopentanecarboxylic acid (1-cyano-cyclopropyl)-amide] displayed an IC50 of 0.2 nM.
In turn, `Cc1cc(-c2ccc(S(=O)(=O)[C@@H]3C[C@@H](C(=O)NC4(C#N)CC4)[C@H](C(=O)N4CC(F)(F)C4)C3)c(C(F)(F)F)c2)ccn1` [Example 121, (1R,2R,4R)-2-(3,3-Difluoro-azetidine-1-carbonyl)-4-[4-(2-methyl-pyridin-4-yl)-2-trifluoromethyl-benzenesulfonyl]-cyclopentanecarboxylic acid (1-cyano-cyclopropyl)-amide] yielded an IC50 of 0.2 nM.
The compound `N#CC1(NC(=O)[C@@H]2C[C@@H](S(=O)(=O)c3ccc(-c4ccnc(Cl)c4)cc3C(F)(F)F)C[C@H]2C(=O)N2CC(F)(F)C2)CC1` [Example 122, (1R,2R,4R)-4-[4-(2-Chloro-pyridin-4-yl)-2-trifluoromethyl-benzenesulfonyl]-2-(3,3-difluoro-azetidine-1-carbonyl)-cyclopentanecarboxylic acid (1-cyano-cyclopropyl)-amide] returned an IC50 of 0.2 nM.
The same measure for `N#CC1(NC(=O)[C@@H]2C[C@@H](S(=O)(=O)c3ccc(-c4cncc(Cl)n4)cc3C(F)(F)F)C[C@H]2C(=O)N2CC(F)(F)C2)CC1` [Example 123, (1R,2R,4R)-4-[4-(6-Chloro-pyrazin-2-yl)-2-trifluoromethyl-benzenesulfonyl]-2-(3,3-difluoro-azetidine-1-carbonyl)-cyclopentanecarboxylic acid (1-cyano-cyclopropyl)-amide]: 0.1 nM.
The compound `Cn1nccc1-c1ccc(S(=O)(=O)[C@@H]2C[C@@H](C(=O)NC3(C#N)CC3)[C@H](C(=O)N3CC(F)(F)C3)C2)c(C(F)(F)F)c1` [Example 124, (1R,2R,4R)-2-(3,3-Difluoro-azetidine-1-carbonyl)-4-[4-(2-methyl-2H-pyrazol-3-yl)-2-trifluoromethyl-benzenesulfonyl]-cyclopentanecarboxylic acid (1-cyano-cyclopropyl)-amide] came in with a concentration for half-maximal inhibition (IC50) of 0.2 nM.
`N#CC1(NC(=O)[C@@H]2C[C@@H](S(=O)(=O)c3ccc(C4CC4)cc3C(F)(F)F)C[C@H]2C(=O)N2CC(F)(F)C2)CC1` [Example 125, (1R,2R,4R)-4-(4-Cyclopropyl-2-trifluoromethyl-benzenesulfonyl)-2-(3,3-difluoro-azetidine-1-carbonyl)-cyclopentanecarboxylic acid (1-cyano-cyclopropyl)-amide] gave an IC50 of 0.3 nM.
The same measure for `N#CC1(NC(=O)[C@@H]2C[C@@H](S(=O)(=O)c3ccc(-c4cncc(-c5cnc(Cl)cn5)n4)cc3C(F)(F)F)C[C@H]2C(=O)N2CC(F)(F)C2)CC1` [Example 126, (1R,2R,4R)-4-[4-(5′-Chloro-[2,2]bipyrazinyl-6-yl)-2-trifluoromethyl-benzenesulfonyl]-2-(3,3-difluoro-azetidine-1-carbonyl)-cyclopentanecarboxylic acid (1-cyano-cyclopropyl)-amide]: 0.6 nM.
As for `N#CC1(NC(=O)C2CC(S(=O)(=O)c3ccc(OC4COC4)cc3C(F)(F)F)CC2C(=O)N2CC(F)(F)C2)CC1` (stereo not shown) [Example 127, 2-(3,3-Difluoro-azetidine-1-carbonyl)-4-[4-(oxetan-3-yloxy)-2-trifluoromethyl-benzenesulfonyl]-cyclopentanecarboxylic acid (1-cyano-cyclopropyl)-amide], the midpoint of inhibition, the IC50, lay at 1.1 nM. This IC50 is about 1.8-fold higher than that of the compound before.
The value for `N#CC1(NC(=O)C2CC(S(=O)(=O)c3ccc(-n4cccn4)cc3C(F)(F)F)CC2C(=O)N2CC(F)(F)C2)CC1` (stereo not shown) [Example 128, 2-(3,3-Difluoro-azetidine-1-carbonyl)-4-(4-pyrazol-1-yl-2-trifluoromethyl-benzenesulfonyl)-cyclopentanecarboxylic acid (1-cyano-cyclopropyl)-amide] was 0.7 nM; that for `N#CC1(NC(=O)[C@@H]2C[C@@H](S(=O)(=O)c3ccc(N4CCN(C5CC5)CC4)cc3C(F)(F)F)C[C@H]2C(=O)N2CC(F)(F)C2)CC1` [Example 129, (1R,2R,4R)-4-[4-(4-Cyclopropyl-piperazin-1-yl)-2-trifluoromethyl-benzenesulfonyl]-2-(3,3-difluoro-azetidine-1-carbonyl)-cyclopentanecarboxylic acid (1-cyano-cyclopropyl)-amide] was 0.6 nM; that for `CC(C)(C)N1CCN(c2ccc(S(=O)(=O)[C@@H]3C[C@@H](C(=O)NC4(C#N)CC4)[C@H](C(=O)N4CC(F)(F)C4)C3)c(C(F)(F)F)c2)CC1` [Example 130, (1R,2R,4R)-4-[4-(4-tert-Butyl-piperazin-1-yl)-2-trifluoromethyl-benzenesulfonyl]-2-(3,3-difluoro-azetidine-1-carbonyl)-cyclopentanecarboxylic acid (1-cyano-cyclopropyl)-amide] was 0.4 nM.
The value for `CC(=O)N1CCN(c2ccc(S(=O)(=O)C3CC(C(=O)NC4(C#N)CC4)C(C(=O)N4CC(F)(F)C4)C3)c(C(F)(F)F)c2)CC1` (stereo not shown) [Example 131, 4-[4-(4-Acetyl-piperazin-1-yl)-2-trifluoromethyl-benzenesulfonyl]-2-(3,3-difluoro-azetidine-1-carbonyl)-cyclopentanecarboxylic acid (1-cyano-cyclopropyl)-amide] was 1.2 nM; that for `N#CC1(NC(=O)C2CC(S(=O)(=O)c3ccc(N4CCC(F)(F)C4)cc3C(F)(F)F)CC2C(=O)N2CC(F)(F)C2)CC1` (stereo not shown) [Example 132, 2-(3,3-Difluoro-azetidine-1-carbonyl)-4-[4-(3,3-difluoro-pyrrolidin-1-yl)-2-trifluoromethyl-benzenesulfonyl]-cyclopentanecarboxylic acid (1-cyano-cyclopropyl)-amide] was 1.2 nM.
Turning to `N#CC1(NC(=O)[C@@H]2C[C@@H](S(=O)(=O)c3ccc(N4CC5(COC5)C4)cc3C(F)(F)F)C[C@H]2C(=O)N2CC(F)(F)C2)CC1` [Example 133, (1R,2R,4R)-2-(3,3-Difluoro-azetidine-1-carbonyl)-4-[4-(2-oxa-6-aza-spiro[3.3]hept-6-yl)-2-trifluoromethyl-benzenesulfonyl]-cyclopentanecarboxylic acid (1-cyano-cyclopropyl)-amide], half-maximal inhibition (IC50) was put at 0.5 nM. This IC50 is about 2.4-fold lower than that of the compound before.
In turn, `N#CC1(NC(=O)[C@@H]2C[C@@H](S(=O)(=O)c3ccc(OCC(F)(F)F)cc3Cl)C[C@H]2C(=O)N2CC(F)(F)C2)CC1` [Example 134, (1R,2R,4R)-4-[2-Chloro-4-(2,2,2-trifluoro-ethoxy)-benzenesulfonyl]-2-(3,3-difluoro-azetidine-1-carbonyl)-cyclopentanecarboxylic acid (1-cyano-cyclopropyl)-amide] registered an IC50 of 1.4 nM.
Regarding `C[C@H](Oc1ccc(S(=O)(=O)[C@@H]2C[C@@H](C(=O)NC3(C#N)CC3)[C@H](C(=O)N3CC(F)(F)C3)C2)c(Cl)c1)C(F)(F)F` [Example 135, (1R,2R,4R)-4-[2-Chloro-4-((S)-2,2,2-trifluoro-1-methyl-ethoxy)-benzenesulfonyl]-2-(3,3-difluoro-azetidine-1-carbonyl)-cyclopentanecarboxylic acid (1-cyano-cyclopropyl)-amide], 2.4 nM corresponded to half-maximal inhibition (IC50).

(Values after patent publication US20100317647A1 (priority 2009, published 2010).)
